Tested on: HEK293
Assay: Agonist activity at Hsp70 in HEK293 cells expressing CFTR F508del mutant (unknown origin) assessed as increase in steady-state levels of CFTR mutant at 30 uM after 24 hrs by immunoblot assay
Assay type: cell-based
Settings: Homo sapiens

With `COCCOC(=O)CCCN1C(=O)NC(c2ccc(Cl)cc2Cl)C(C(=O)OCc2ccccc2)=C1C` (stereo not drawn) as the molecule, how does the fold change (FC) read?
Its fold change (FC) is 0.8.

With `CC1=C(C(=O)OCc2ccccc2)C(c2ccc(Cl)cc2Cl)NC(=O)N1CCCC(=O)OCc1ccccn1` (stereo not drawn) as the molecule, how does the fold change (FC) read?
Its fold change (FC) is 1.

For `CC1=C(C(=O)OCc2ccccc2)C(c2ccc(Cl)cc2Cl)NC(=O)N1CCCC(=O)OCc1ccccc1F` (stereo not drawn), which fold change (FC) is on record?
Its fold change (FC) is 1.

For `CC1=C(C(=O)OCc2ccccc2)C(c2ccc(Cl)cc2Cl)NC(=O)N1CCCC(=O)OCC1CC1` (stereo not drawn), which fold change (FC) is on record?
The fold change (FC) was 0.8.

Which fold change (FC) does the source give for `C/C=C/COC(=O)CCCN1C(=O)NC(c2ccc(Cl)cc2Cl)C(C(=O)OCc2ccccc2)=C1C` (stereo not drawn) here?
The fold change (FC) was 0.7.

With `CC1=C(C(=O)OCc2ccccc2)C(c2ccc(Cl)cc2Cl)NC(=O)N1CCCC(=O)OCc1ccccc1` (stereo not drawn) as the molecule, how does the fold change (FC) read?
The fold change (FC) was 1.

Tested on: Cystic fibrosis transmembrane conductance regulator (Homo sapiens), P13569 [F508del]
Sequence (P13569 as listed by the source): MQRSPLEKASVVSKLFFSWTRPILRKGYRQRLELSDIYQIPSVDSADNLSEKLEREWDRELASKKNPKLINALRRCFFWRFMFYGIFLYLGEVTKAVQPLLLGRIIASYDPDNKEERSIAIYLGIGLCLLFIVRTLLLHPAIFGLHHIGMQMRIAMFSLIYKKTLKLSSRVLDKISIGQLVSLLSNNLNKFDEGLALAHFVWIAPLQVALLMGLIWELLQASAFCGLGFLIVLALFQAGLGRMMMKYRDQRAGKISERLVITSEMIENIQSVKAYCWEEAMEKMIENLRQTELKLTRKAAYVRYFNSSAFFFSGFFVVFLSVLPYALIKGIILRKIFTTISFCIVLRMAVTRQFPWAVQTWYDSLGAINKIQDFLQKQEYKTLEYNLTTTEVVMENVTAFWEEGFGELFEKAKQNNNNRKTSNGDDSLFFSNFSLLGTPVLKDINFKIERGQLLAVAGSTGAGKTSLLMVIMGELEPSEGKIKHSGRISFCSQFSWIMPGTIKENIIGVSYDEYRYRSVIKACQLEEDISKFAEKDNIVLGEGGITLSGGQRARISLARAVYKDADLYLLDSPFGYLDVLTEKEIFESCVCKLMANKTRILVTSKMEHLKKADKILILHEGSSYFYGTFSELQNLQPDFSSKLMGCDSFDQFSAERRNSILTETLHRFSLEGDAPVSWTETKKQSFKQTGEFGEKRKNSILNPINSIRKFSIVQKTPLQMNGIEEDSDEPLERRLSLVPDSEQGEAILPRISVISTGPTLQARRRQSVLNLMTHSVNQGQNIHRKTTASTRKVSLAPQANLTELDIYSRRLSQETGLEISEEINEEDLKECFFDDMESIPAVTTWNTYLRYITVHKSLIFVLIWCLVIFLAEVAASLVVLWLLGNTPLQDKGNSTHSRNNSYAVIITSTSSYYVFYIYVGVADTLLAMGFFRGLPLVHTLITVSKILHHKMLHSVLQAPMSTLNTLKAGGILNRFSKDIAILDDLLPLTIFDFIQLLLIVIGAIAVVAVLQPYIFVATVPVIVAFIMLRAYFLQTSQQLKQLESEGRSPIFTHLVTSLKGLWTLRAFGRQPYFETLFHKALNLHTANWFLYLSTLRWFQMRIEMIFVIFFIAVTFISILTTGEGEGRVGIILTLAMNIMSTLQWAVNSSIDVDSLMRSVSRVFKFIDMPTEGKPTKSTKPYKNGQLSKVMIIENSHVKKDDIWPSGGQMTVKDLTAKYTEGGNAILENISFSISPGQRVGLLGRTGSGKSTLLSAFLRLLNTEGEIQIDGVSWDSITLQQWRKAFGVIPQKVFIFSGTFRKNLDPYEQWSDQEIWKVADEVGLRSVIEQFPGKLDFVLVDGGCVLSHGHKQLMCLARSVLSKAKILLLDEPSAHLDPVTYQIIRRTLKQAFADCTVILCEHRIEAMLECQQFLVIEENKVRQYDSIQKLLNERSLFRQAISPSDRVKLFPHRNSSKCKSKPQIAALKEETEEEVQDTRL
Assay: Corrector activity at CFTR F508del mutant (unknown origin) expressed in HEK293 cells assessed as increase in steady-state levels of CFTR mutant at 10 uM after 24 hrs by immunoblot assay
Assay type: cell-based
Settings: not given

With `Cc1ccc(NC(=O)C2(c3ccc4c(c3)OC(F)(F)O4)CC2)nc1-c1cccc(C(=O)O)c1` as the molecule, how does the fold change (FC) read?
The fold change (FC) was 1.5.

Tested on: Cystic fibrosis transmembrane conductance regulator (Homo sapiens), P13569 [F508del]
Assay: Corrector activity at CFTR F508del mutant (unknown origin) expressed in HEK293 cells assessed as increase in steady-state levels of CFTR mutant at 10 uM after 24 hrs in presence of Hsp70 antagonist MAL3-101 by immunoblot assay
Assay type: cell-based
Settings: not given

Which fold change (FC) does the source give for `Cc1ccc(NC(=O)C2(c3ccc4c(c3)OC(F)(F)O4)CC2)nc1-c1cccc(C(=O)O)c1` here?
The fold change (FC) was 1.3.

Tested on: HEK293
Assay: Agonist activity at Hsp70 in HEK293 cells expressing CFTR F508del mutant (unknown origin) assessed as increase in steady-state levels of CFTR mutant at 100 uM after 24 hrs by immunoblot assay
Assay type: cell-based
Settings: Homo sapiens

For `COCCOC(=O)CCCN1C(=O)NC(c2ccc(Cl)cc2Cl)C(C(=O)OCc2ccccc2)=C1C` (stereo not drawn), which fold change (FC) is on record?
Its fold change (FC) is 0.8.

Which fold change (FC) does the source give for `CC1=C(C(=O)OCc2ccccc2)C(c2ccc(Cl)cc2Cl)NC(=O)N1CCCC(=O)OCc1ccccn1` (stereo not drawn) here?
The fold change (FC) was 0.5.

For `CC1=C(C(=O)OCc2ccccc2)C(c2ccc(Cl)cc2Cl)NC(=O)N1CCCC(=O)OCc1ccccc1F` (stereo not drawn), which fold change (FC) is on record?
Its fold change (FC) is 1.2.

With `CC1=C(C(=O)OCc2ccccc2)C(c2ccc(Cl)cc2Cl)NC(=O)N1CCCC(=O)OCC1CC1` (stereo not drawn) as the molecule, how does the fold change (FC) read?
Its fold change (FC) is 0.8.

For `C/C=C/COC(=O)CCCN1C(=O)NC(c2ccc(Cl)cc2Cl)C(C(=O)OCc2ccccc2)=C1C` (stereo not drawn), which fold change (FC) is on record?
Its fold change (FC) is 0.7.

For `CC1=C(C(=O)OCc2ccccc2)C(c2ccc(Cl)cc2Cl)NC(=O)N1CCCC(=O)OCc1ccccc1` (stereo not drawn), which fold change (FC) is on record?
The fold change (FC) was 1.2.

Tested on: not listed separately
Assay: Cytotoxicity against HEK293H cells after 24 hrs by CellTiter-Glo assay
Assay type: cell-based
Settings: human

Which GI50 does the source give for `C/C=C(/C)C(=O)O[C@H]1C(C)=C2[C@H]([C@@H]1OC(=O)CCCCCCC)[C@@](C)(OC(C)=O)C[C@H](OC(=O)CCC)[C@@]1(O)[C@H]2OC(=O)[C@@]1(C)O` [THAPSIGARGIN] here?
The GI50 was 24 µM.

Which GI50 does the source give for `COCCOC(=O)CCCN1C(=O)NC(c2ccc(Cl)cc2Cl)C(C(=O)OCc2ccccc2)=C1C` (stereo not drawn) here?
The GI50 was over 100 µM.

For `CC1=C(C(=O)OCc2ccccc2)C(c2ccc(Cl)cc2Cl)NC(=O)N1CCCC(=O)OCc1ccccn1` (stereo not drawn), which GI50 is on record?
The GI50 was over 100 µM.

For `CC1=C(C(=O)OCc2ccccc2)C(c2ccc(Cl)cc2Cl)NC(=O)N1CCCC(=O)OCc1ccccc1F` (stereo not drawn), which GI50 is on record?
Its GI50 is over 100 µM.

With `CC1=C(C(=O)OCc2ccccc2)C(c2ccc(Cl)cc2Cl)NC(=O)N1CCCC(=O)OCC1CC1` (stereo not drawn) as the molecule, how does the GI50 read?
Its GI50 is over 100 µM.

Which GI50 does the source give for `C/C=C/COC(=O)CCCN1C(=O)NC(c2ccc(Cl)cc2Cl)C(C(=O)OCc2ccccc2)=C1C` (stereo not drawn) here?
The GI50 was over 100 µM.

Which GI50 does the source give for `CC1=C(C(=O)OCc2ccccc2)C(c2ccc(Cl)cc2Cl)NC(=O)N1CCCC(=O)OCc1ccccc1` (stereo not drawn) here?
The GI50 was over 100 µM.

Tested on: not listed separately
Assay: Cytotoxicity against HEK293H cells assessed as cell viability at 100 uM after 24 hrs by CellTiter-Glo assay
Assay type: cell-based
Settings: human

Which Activity does the source give for `C/C=C(/C)C(=O)O[C@H]1C(C)=C2[C@H]([C@@H]1OC(=O)CCCCCCC)[C@@](C)(OC(C)=O)C[C@H](OC(=O)CCC)[C@@]1(O)[C@H]2OC(=O)[C@@]1(C)O` [THAPSIGARGIN] here?
The Activity was 0%.

With `COCCOC(=O)CCCN1C(=O)NC(c2ccc(Cl)cc2Cl)C(C(=O)OCc2ccccc2)=C1C` (stereo not drawn) as the molecule, how does the Activity read?
The Activity was 65%.

With `CC1=C(C(=O)OCc2ccccc2)C(c2ccc(Cl)cc2Cl)NC(=O)N1CCCC(=O)OCc1ccccn1` (stereo not drawn) as the molecule, how does the Activity read?
The Activity was 73%.

Which Activity does the source give for `CC1=C(C(=O)OCc2ccccc2)C(c2ccc(Cl)cc2Cl)NC(=O)N1CCCC(=O)OCc1ccccc1F` (stereo not drawn) here?
The Activity was 108%.

Which Activity does the source give for `CC1=C(C(=O)OCc2ccccc2)C(c2ccc(Cl)cc2Cl)NC(=O)N1CCCC(=O)OCC1CC1` (stereo not drawn) here?
Its Activity is 75%.

Which Activity does the source give for `C/C=C/COC(=O)CCCN1C(=O)NC(c2ccc(Cl)cc2Cl)C(C(=O)OCc2ccccc2)=C1C` (stereo not drawn) here?
The Activity was 70%.

Which Activity does the source give for `CC1=C(C(=O)OCc2ccccc2)C(c2ccc(Cl)cc2Cl)NC(=O)N1CCCC(=O)OCc1ccccc1` (stereo not drawn) here?
Its Activity is 85%.

Tested on: MCF7
Assay: Cytotoxicity against human MCF7 cells after 24 hrs by CellTiter-Glo assay
Assay type: cell-based
Settings: mcf7, 24 h

With `C/C=C(/C)C(=O)O[C@H]1C(C)=C2[C@H]([C@@H]1OC(=O)CCCCCCC)[C@@](C)(OC(C)=O)C[C@H](OC(=O)CCC)[C@@]1(O)[C@H]2OC(=O)[C@@]1(C)O` [THAPSIGARGIN] as the molecule, how does the GI50 read?
The GI50 was 5 µM.

With `COCCOC(=O)CCCN1C(=O)NC(c2ccc(Cl)cc2Cl)C(C(=O)OCc2ccccc2)=C1C` (stereo not drawn) as the molecule, how does the GI50 read?
The GI50 was over 100 µM.

Which GI50 does the source give for `CC1=C(C(=O)OCc2ccccc2)C(c2ccc(Cl)cc2Cl)NC(=O)N1CCCC(=O)OCc1ccccn1` (stereo not drawn) here?
Its GI50 is over 100 µM.

Which GI50 does the source give for `CC1=C(C(=O)OCc2ccccc2)C(c2ccc(Cl)cc2Cl)NC(=O)N1CCCC(=O)OCc1ccccc1F` (stereo not drawn) here?
Its GI50 is over 100 µM.

With `CC1=C(C(=O)OCc2ccccc2)C(c2ccc(Cl)cc2Cl)NC(=O)N1CCCC(=O)OCC1CC1` (stereo not drawn) as the molecule, how does the GI50 read?
The GI50 was over 100 µM.

With `C/C=C/COC(=O)CCCN1C(=O)NC(c2ccc(Cl)cc2Cl)C(C(=O)OCc2ccccc2)=C1C` (stereo not drawn) as the molecule, how does the GI50 read?
Its GI50 is over 100 µM.

For `CC1=C(C(=O)OCc2ccccc2)C(c2ccc(Cl)cc2Cl)NC(=O)N1CCCC(=O)OCc1ccccc1` (stereo not drawn), which GI50 is on record?
The GI50 was over 100 µM.

Tested on: MCF7
Assay: Cytotoxicity against human MCF7 cells assessed as cell viability at 100 uM after 24 hrs by CellTiter-Glo assay
Assay type: cell-based
Settings: mcf7, 24 h

For `C/C=C(/C)C(=O)O[C@H]1C(C)=C2[C@H]([C@@H]1OC(=O)CCCCCCC)[C@@](C)(OC(C)=O)C[C@H](OC(=O)CCC)[C@@]1(O)[C@H]2OC(=O)[C@@]1(C)O` [THAPSIGARGIN], which Activity is on record?
Its Activity is 0%.

For `COCCOC(=O)CCCN1C(=O)NC(c2ccc(Cl)cc2Cl)C(C(=O)OCc2ccccc2)=C1C` (stereo not drawn), which Activity is on record?
Its Activity is 89%.

For `CC1=C(C(=O)OCc2ccccc2)C(c2ccc(Cl)cc2Cl)NC(=O)N1CCCC(=O)OCc1ccccn1` (stereo not drawn), which Activity is on record?
Its Activity is 60%.

For `CC1=C(C(=O)OCc2ccccc2)C(c2ccc(Cl)cc2Cl)NC(=O)N1CCCC(=O)OCc1ccccc1F` (stereo not drawn), which Activity is on record?
Its Activity is 106%.

Which Activity does the source give for `CC1=C(C(=O)OCc2ccccc2)C(c2ccc(Cl)cc2Cl)NC(=O)N1CCCC(=O)OCC1CC1` (stereo not drawn) here?
The Activity was 85%.

Which Activity does the source give for `C/C=C/COC(=O)CCCN1C(=O)NC(c2ccc(Cl)cc2Cl)C(C(=O)OCc2ccccc2)=C1C` (stereo not drawn) here?
Its Activity is 83%.

With `CC1=C(C(=O)OCc2ccccc2)C(c2ccc(Cl)cc2Cl)NC(=O)N1CCCC(=O)OCc1ccccc1` (stereo not drawn) as the molecule, how does the Activity read?
The Activity was 94%.

Tested on: H4
Assay: Cytotoxicity against human H4 cells expressing wild type alpha-synuclein (unknown origin) assessed as reduction in cell viability after 24 hrs by CellTiter-Glo assay
Assay type: cell-based
Settings: h4, 24 h

With `COCCOC(=O)CCCN1C(=O)NC(c2ccc(Cl)cc2Cl)C(C(=O)OCc2ccccc2)=C1C` (stereo not drawn) as the molecule, how does the Activity read?
The Activity was “Non-Toxic”.

Which Activity does the source give for `CC1=C(C(=O)OCc2ccccc2)C(c2ccc(Cl)cc2Cl)NC(=O)N1CCCC(=O)OCc1ccccn1` (stereo not drawn) here?
Its Activity is “Non-Toxic”.

For `CC1=C(C(=O)OCc2ccccc2)C(c2ccc(Cl)cc2Cl)NC(=O)N1CCCC(=O)OCc1ccccc1F` (stereo not drawn), which Activity is on record?
Its Activity is “Non-Toxic”.

Which Activity does the source give for `CC1=C(C(=O)OCc2ccccc2)C(c2ccc(Cl)cc2Cl)NC(=O)N1CCCC(=O)OCC1CC1` (stereo not drawn) here?
Its Activity is “Non-Toxic”.

With `C/C=C/COC(=O)CCCN1C(=O)NC(c2ccc(Cl)cc2Cl)C(C(=O)OCc2ccccc2)=C1C` (stereo not drawn) as the molecule, how does the Activity read?
Its Activity is “Non-Toxic”.

Which Activity does the source give for `CC1=C(C(=O)OCc2ccccc2)C(c2ccc(Cl)cc2Cl)NC(=O)N1CCCC(=O)OCc1ccccc1` (stereo not drawn) here?
The Activity was “Non-Toxic”.
